Measured values published in article PMC7239764 (The FEBS journal, 2019).
Several values for one entry are separate records, joined by “and”; a condition that tells them apart may be missing. Equal entries are not always repeated. Where two headings read alike, the source gives them in different places.

How the values were obtained:
[1] = target: T1, BaPDH (prephenate dehydrogenase from Bacillus anthracis) (Bacillus anthracis, UniProt Q81P63); format: binding
[2] = target: T1, BaPDH (prephenate dehydrogenase from Bacillus anthracis); experiment: biochemical; format: binding
[3] = target: T1, BaPDH (prephenate dehydrogenase from Bacillus anthracis); experiment: biochemical; format: biochemical; settings: for Km: 25°C, pH 7.5
[4] = target: AaPDH (prephenate dehydrogenase from Aquifex aeolicus); settings: cited from earlier work
[5] = target: arogenate dehydrogenase from cyanobacteria Synechocystis sp.; settings: cited from earlier work

T1 sequence (Q81P63 1-378): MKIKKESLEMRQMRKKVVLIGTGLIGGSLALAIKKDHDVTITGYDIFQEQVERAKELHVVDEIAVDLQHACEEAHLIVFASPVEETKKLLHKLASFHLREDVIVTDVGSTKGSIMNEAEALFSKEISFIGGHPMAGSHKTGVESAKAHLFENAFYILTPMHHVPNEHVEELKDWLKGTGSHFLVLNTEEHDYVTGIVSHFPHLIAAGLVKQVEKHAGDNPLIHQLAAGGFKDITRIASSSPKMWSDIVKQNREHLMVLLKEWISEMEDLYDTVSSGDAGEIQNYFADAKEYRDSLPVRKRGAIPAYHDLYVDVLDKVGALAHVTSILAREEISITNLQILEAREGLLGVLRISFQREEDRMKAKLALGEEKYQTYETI

| SMILES | Increase in Tm with the addition of the ligand(s) [1] | Tm [1] | Binding sites per protein dimer (N) [2] | Km [3] | further results |
| --- | --- | --- | --- | --- | --- |
| NC(=O)C1=CN([C@@H]2O[C@H](COP(=O)(O)OP(=O)(O)OC[C@H]3O[C@@H](n4cnc5c(N)ncnc54)[C@H](O)[C@@H]3O)[C@@H](O)[C@H]2O)C=CC1 [NADH] | do not significantly change and ns | 43 ± 2 °C | – | – | – |
| NC(=O)C1=CN([C@@H]2O[C@H](COP(=O)(O)OP(=O)(O)OC[C@H]3O[C@@H](n4cnc5c(N)ncnc54)[C@H](OP(=O)(O)O)[C@@H]3O)[C@@H](O)[C@H]2O)C=CC1 [NADPH] | do not significantly change and ns | 40 ± 1 °C | – | – | – |
| NC(=O)c1ccc[n+]([C@@H]2O[C@H](COP(=O)([O-])OP(=O)(O)OC[C@H]3O[C@@H](n4cnc5c(N)ncnc54)[C@H](OP(=O)(O)O)[C@@H]3O)[C@@H](O)[C@H]2O)c1 [NADP^+] | do not significantly change and ns | 41 ± 1 °C | – | – | Kd [2]: No detectable binding |
| NC(=O)c1ccc[n+]([C@@H]2O[C@H](COP(=O)([O-])OP(=O)(O)OC[C@H]3O[C@@H](n4cnc5c(N)ncnc54)[C@H](O)[C@@H]3O)[C@@H](O)[C@H]2O)c1 [NAD^+] | does not impart a significant change and ns | 41 ± 1 °C | 0.90 ± 0.01 | 237 ± 44 µM | – |
| N[C@@H](Cc1ccc(O)cc1)C(=O)O [Tyrosine, L-tyrosine] | – | 51 ± 1 °C | 1.002 ± 0.001 and 0.928 ± 0.003 | – | Kd ([2]; Kd): 640 nM and 370 nM; Ki [3]: 1470 ± 70 nM; mode of inhibition [3]: non-competitive inhibition; Ki [4]: 15900 ± 1300 nM; Ki [5]: 70000 nM |
| O=C(O)C(=O)CC1(C(=O)O)C=CC(O)C=C1 (stereo not shown) [prephenate] | – | – | – | 58 ± 9 µM | – |
